Test results: patent US6653135B1, “Dynamic protein signature assay” (University of Maryland, priority 2000, dated 2003)

How the values were obtained:
Mytilus edulis = test: Protein expression signature by 2D electrophoresis of whole body homogenate after 7 day exposure
Protocol: Protein expression signatures, including those proteins induced and those proteins suppressed by exposure, were isolated for each treatment group.
Eight blue mussels Mytilus edulis 2-3 cm in size were collected from a natural population 3M deep. Ambient salinity and temperature were a salinity of 6.3 ppt and a temperature of 7° C. The mussels were put in tanks for acclimation for 24 hours at the same temperature and salinity as collection. […] Water was changed every other day and continuously aerated. At the end of the 7 day exposure, mussels were removed from the shell and flash frozen in liquid nitrogen before being freeze dried for later analysis.
Freeze dried whole body tissue was mechanically homogenized in cold buffer containing phenyl-methylsulfonyl fluoride and dithiothreotol (PMSF and DTT, protease inhibitors) and tris buffer pH 5.5. After mechanical homogenization, samples were boiled to further break down cells, and cellular debris was removed by centrifugation (13000×g for 5 min). Total protein concentration was determined using methods based on the Bradford method (Biorad).
The supernatant containing the soluble protein fraction was separated using two dimensional electrophoresis (Biorad Miniprotean II™). […] Gels from each treatment were compared for changes in pattern and key components using Medical Electrophoresis Analysis Interactive Expert System (MELANIE II™) 2D analysis software (Biorad) and data compiled using a database developed by this laboratory. Composite gels were produced from each treatment set and compared to one another. Proteins uniquely present (induced (expressed)) or absent (suppressed) in each treatment were identified. Those present or absent in all the original component gels were included in the protein expression signature (PES) for each treatment.

[1] = system: Mytilus edulis gill tissue; test: Protein expression changes in gill tissue by 2D electrophoresis after 24 h exposure
Protocol: Gill tissue previously flash frozen in liquid nitrogen was mechanically homogenized in cold buffer containing phenyl-methylsulfonyl fluoride and dithiothreotol (PMSF and DTT, protease inhibitors). Cellular debris was removed by centrifugation (13000×g for 5 min). Total protein concentration of the supernatant containing the soluble protein fraction was determined using the Bradford method.
Spots on each gel were detected and compared using Medical Electrophoresis Analysis Interactive Expert System (MELANIE II™) 2D analysis software (Biorad). […] Those spots detectable on the treatment composites only were considered present. Each spot of interest, present or absent, on the treatment composites was identified on all original gels from a treatment group before being considered part of the protein expression signature.

[2] = 7 days exposure, 70 ppb copper, 1 ppb Aroclor 1248, whole body
[3] = signature proteins also found with 70 ppb copper combined with lowered salinity (3 ppt), 7 days
[4] = 20, 40, 60, 80 ppb CuSO4, 24 hrs

Row | SMILES | Proteins of the signature identified in organisms treated with copper and lowered salinity simultaneously (Mytilus edulis; 70 ppb copper plus salinity 3 ppt, 7 days) | Protein expression signature (induced and suppressed), number of proteins (Mytilus edulis; 7 days exposure, 70 ppb copper, 1 ppb Aroclor 1248) [proteins] | Unique Induction: number of proteins specifically induced (present) (Mytilus edulis; [2]) [proteins] | Unique Suppression: number of proteins specifically suppressed (absent) (Mytilus edulis; [2]) [proteins] | Copper/Salinity shared signal, induced proteins (Mytilus edulis; [3]) [proteins] | Copper/Salinity shared signal, suppressed proteins (Mytilus edulis; [3]) [proteins] | Protein spots absent at all treatment levels compared to controls [1, 4] [spots] | Protein spots present at all treatment levels compared to controls [1, 4] [protein spots] | Key Protein Changes (number of key proteins present and absent specifically) ([1]; 20 ppb CuSO4, 24 hrs, gill tissue) | Number of proteins specifically absent at a single dosage level ([1]; 20 ppb, 24 hrs) [protein spots] | Key Protein Changes (number of key proteins present and absent specifically) ([1]; 40 ppb CuSO4, 24 hrs, gill tissue) | Key Protein Changes (number of key proteins present and absent specifically) ([1]; 60 ppb CuSO4, 24 hrs, gill tissue) | Key Protein Changes (number of key proteins present and absent specifically) ([1]; 80 ppb CuSO4, 24 hrs, gill tissue) | Number of proteins specifically absent at a single dosage level ([1]; 80 ppb, 24 hrs) [protein spots] | Key Protein Changes (number of key proteins present and absent) ([1]; All Dosages (20, 40, 60, 80 ppb CuSO4), 24 hrs, gill tissue)
1 | [Cu] [Copper, copper] | Five | 23 | 13 | 10 | 3 | 2 |  |  |  |  |  |  |  |  | 
2 | O=S(=O)([O-])[O-].[Cu+2] [CuSO4, copper sulfate] |  |  |  |  |  |  | 2 | 11 | 27 | 14 | 14 | 19 | 10 | 6 | 13
